Reference: US11834698B2, “Process for determining enzyme activity in a cell by activity-based reporter gene technology (ABRGT)” (INDIAN INSTITUTE OF SCIENCE EDUCATION AND RESEARCH, priority 2018, dated 2023)
Peptide text beside a SMILES is read from it. * marks the point of attachment. Cbz = O=C(OCc1ccccc1)*; CH2F = FC*

What was measured:
caspase-9 GFPspark [1] = biological target: T1, caspase-9 GFPspark (Homo sapiens, UniProt P55211); test: AbRGT FRET imaging / acceptor photobleaching, caspase-9 GFPspark in HEK-293 cells; type: cell-based
T1 construct: host or cells: MCF-7, HEK-293
T1 sequence (P55211 1-416): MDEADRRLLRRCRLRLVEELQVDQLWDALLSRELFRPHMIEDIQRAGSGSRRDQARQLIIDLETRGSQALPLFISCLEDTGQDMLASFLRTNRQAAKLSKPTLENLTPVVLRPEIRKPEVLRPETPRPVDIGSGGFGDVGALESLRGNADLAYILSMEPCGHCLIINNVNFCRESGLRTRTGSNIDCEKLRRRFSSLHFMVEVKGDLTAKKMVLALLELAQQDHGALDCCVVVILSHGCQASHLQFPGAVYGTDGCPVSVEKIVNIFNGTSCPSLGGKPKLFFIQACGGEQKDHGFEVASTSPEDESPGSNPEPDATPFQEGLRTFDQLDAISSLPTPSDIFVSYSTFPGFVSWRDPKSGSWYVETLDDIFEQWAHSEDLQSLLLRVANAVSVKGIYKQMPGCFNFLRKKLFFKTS
Procedure: FIGS. 17A and 17B depict specific detection of caspase-9 GFPspark in HEK-293 cells. Casp-9 GFPspark (1 μg) transfected HEK-293 cells were treated with STS (1 μM) for 4 h and labelled with the probe 1 (1 μM) for 2 h. […] The acceptor photobleaching was performed to confirm the FRET signal as described previously. The bar graph representing the rise in GFP intensity in ROI after rhodamine photobleaching was 75 a.u. as compared to the unbleached background, i.e., 10 a.u. FRET efficiency was calculated to be 35±2%.
Plasmids and transient transfection: GFPspark tagged plasmids; caspase-3 GFPspark tag (Cat: HG10050-ACG), caspase-7 GFPspark tag (HG10049-ACG), caspase-8 GFPspark (HG10078-ACG), caspase-9 GFPspark (HG11151-ACG) and cathepsin B GFPspark (HG10483-ACG) were procured from Sino Biological. For transfection, cells were seeded in a 6-well plate at a density of 0.4 million cells/well. […] 24 h post-transfection, cells were visualized under the GFP filter for GFPspark expression under fluorescence microscope at 10× magnification.
(§1) Labelling of active caspases in apoptotic cells with FABP: After 24 h of transfection, cells were treated with STS (1 μM) drug or TRAIL (1 μg/ml) for apoptotic induction and incubated for 2, 4, 6 and 8 h at 37° C. in a humidified atmosphere of 5% CO2/95% air. […] Slides were then imaged for GFP, FRET and rhodamine fluorescence signals under confocal microscopy. […]
Fluorescence imaging studies, FRET procedure: Images were collected on Zeiss LSM710 confocal microscope with 25 mW argon laser using Zen10 software. […] Images were collected in the three channels; GFP channel, argon laser tuned at 488 nm with 2% laser intensity and fluorescence emission was collected in emission range of 490-550 nm; rhodamine channel, argon laser tuned to 561 nm laser with 2% laser intensity and fluorescence emission was collected in range 550-650 nm and FRET channel with excitation laser of GFPSPARK channel and emission range of rhodamine channel. […]

caspase-9 GFPspark [2] = biological target: T1, caspase-9 GFPspark; test: AbRGT FRET imaging / acceptor photobleaching, caspase-9 GFPspark in MCF-7 cells; type: cell-based
Procedure: FIG. 15 depicts confocal images of MCF-7 cells in GFP, FRET and Rh channel Caspase-7 GFPspark transfected MCF-7 cells were treated with STS (1 μM) for 6 h and labelled (a) (i) with probe 1 (1 μM) probe. Cells were pre-treated with (a) (ii) Z-VAD-FMK (50 μM) or (a) (iii) Q-VD-OPh (50 μM) pan-caspase inhibitors 1 h before the probe labelling. Caspase-9 GFPspark transfected MCF-7 cells were treated with STS (1 μM) for 4 h and labelled (b) (i) with probe 1 (1 μM) probe. Cells were pre-treated with (b) (ii) Z-VAD-FMK (50 μM) 1 h before probe labelling. Caspase-8 GFPspark overexpressing HEK-293 cells were treated with TRAIL (1 μg/ml) for 5 h and labelled (c) (i) with the probe 1. Cells were pre-treated with (c) (ii) Z-VAD-FMK (50 μM) 1 h before probe labelling.
FIG. 16 depicts specific detection of caspase-9 GFPspark in MCF-7 cells. Casp-9 GFPspark (1 μg) transfected MCF-7 cells were treated with STS (1 μM) for 4 h and labelled with the probe 1 (1 μM). Cells were fixed and the fluorescence signal was collected in GFP, FRET and Rh channels. The acceptor photobleaching experiment was carried out to confirm the FRET signal as described previously. Bar graph representing a rise in GFP intensity in ROI after rhodamine photobleaching was 63 a.u. as compared to the unbleached background, i.e., 8 a.u. FRET efficiency was calculated to be 30±1%.
Plasmids and transient transfection: GFPspark tagged plasmids; caspase-3 GFPspark tag (Cat: HG10050-ACG), caspase-7 GFPspark tag (HG10049-ACG), caspase-8 GFPspark (HG10078-ACG), caspase-9 GFPspark (HG11151-ACG) and cathepsin B GFPspark (HG10483-ACG) were procured from Sino Biological. For transfection, cells were seeded in a 6-well plate at a density of 0.4 million cells/well. At 60-70% confluency, cells were transiently transfected for 24 h at 37° C. with 1 μg of the GFPspark tagged plasmid DNA construct mixed with 5 μL of Lipofectamine 2000 (Invitrogen) according to the manufacturer's instructions. 24 h post-transfection, cells were visualized under the GFP filter for GFPspark expression under fluorescence microscope at 10× magnification.
as §1, with “air. Cells were gently scraped off from the surface at the end of apoptotic induction and centrifuged at 3000 rpm for 5 min.” for “air.”
Fluorescence imaging studies, FRET procedure: Images were collected on Zeiss LSM710 confocal microscope with 25 mW argon laser using Zen10 software. […]

[3] = MCF-7, inhibitor 50 μM, STS 4 h
[4] = HEK-293, STS 1 μM 4 h, probe 1 μM 2 h
[5] = MCF-7, STS 1 μM 4 h, probe 1 μM

Row | Compound | effect of inhibitor on FRET signal (caspase-9 GFPspark [1]; HEK-293, inhibitor 50 μM pre-treatment, STS 4 h) | effect of inhibitor on signal in FRET channel (caspase-9 GFPspark [2]; [3]) | effect of inhibitor on signal in Rh channel (caspase-9 GFPspark [2]; [3]) | calculated FRET efficiency (caspase-9 GFPspark [1]; [4]) | rise in GFP intensity in ROI after rhodamine photobleaching (caspase-9 GFPspark [1]; [4]) | calculated FRET efficiency (caspase-9 GFPspark [2]; [5]) | rise in GFP intensity in ROI after rhodamine photobleaching (caspase-9 GFPspark [2]; [5])
1 | COC(=O)C[C@H](NC(=O)[C@H](C)NC(=O)[C@@H](NC(=O)OCc1ccccc1)C(C)C)C(=O)CF [Z-VAD-FMK] (Cbz-Val-Ala-Asp(OMe)-CH2F) | abolished | completely abolished | completely abolished | – | – | – | –
2 | Rhodamine-VAD-fluoromethyl ketone [probe 1] | – | – | – | 35±2% | 75 a.u. | 30±1% | 63 a.u.
